In EP4667464A1 (Cyrus Therapeutics Inc., priority 2023, dated 2024):

Molecular target: T1, KRAS G12C::SOS1 (Homo sapiens, UniProt Q07889)
T1 construct: purchased CISBIO 64KRASG12PEH
T1 sequence (Q07889 1-1333): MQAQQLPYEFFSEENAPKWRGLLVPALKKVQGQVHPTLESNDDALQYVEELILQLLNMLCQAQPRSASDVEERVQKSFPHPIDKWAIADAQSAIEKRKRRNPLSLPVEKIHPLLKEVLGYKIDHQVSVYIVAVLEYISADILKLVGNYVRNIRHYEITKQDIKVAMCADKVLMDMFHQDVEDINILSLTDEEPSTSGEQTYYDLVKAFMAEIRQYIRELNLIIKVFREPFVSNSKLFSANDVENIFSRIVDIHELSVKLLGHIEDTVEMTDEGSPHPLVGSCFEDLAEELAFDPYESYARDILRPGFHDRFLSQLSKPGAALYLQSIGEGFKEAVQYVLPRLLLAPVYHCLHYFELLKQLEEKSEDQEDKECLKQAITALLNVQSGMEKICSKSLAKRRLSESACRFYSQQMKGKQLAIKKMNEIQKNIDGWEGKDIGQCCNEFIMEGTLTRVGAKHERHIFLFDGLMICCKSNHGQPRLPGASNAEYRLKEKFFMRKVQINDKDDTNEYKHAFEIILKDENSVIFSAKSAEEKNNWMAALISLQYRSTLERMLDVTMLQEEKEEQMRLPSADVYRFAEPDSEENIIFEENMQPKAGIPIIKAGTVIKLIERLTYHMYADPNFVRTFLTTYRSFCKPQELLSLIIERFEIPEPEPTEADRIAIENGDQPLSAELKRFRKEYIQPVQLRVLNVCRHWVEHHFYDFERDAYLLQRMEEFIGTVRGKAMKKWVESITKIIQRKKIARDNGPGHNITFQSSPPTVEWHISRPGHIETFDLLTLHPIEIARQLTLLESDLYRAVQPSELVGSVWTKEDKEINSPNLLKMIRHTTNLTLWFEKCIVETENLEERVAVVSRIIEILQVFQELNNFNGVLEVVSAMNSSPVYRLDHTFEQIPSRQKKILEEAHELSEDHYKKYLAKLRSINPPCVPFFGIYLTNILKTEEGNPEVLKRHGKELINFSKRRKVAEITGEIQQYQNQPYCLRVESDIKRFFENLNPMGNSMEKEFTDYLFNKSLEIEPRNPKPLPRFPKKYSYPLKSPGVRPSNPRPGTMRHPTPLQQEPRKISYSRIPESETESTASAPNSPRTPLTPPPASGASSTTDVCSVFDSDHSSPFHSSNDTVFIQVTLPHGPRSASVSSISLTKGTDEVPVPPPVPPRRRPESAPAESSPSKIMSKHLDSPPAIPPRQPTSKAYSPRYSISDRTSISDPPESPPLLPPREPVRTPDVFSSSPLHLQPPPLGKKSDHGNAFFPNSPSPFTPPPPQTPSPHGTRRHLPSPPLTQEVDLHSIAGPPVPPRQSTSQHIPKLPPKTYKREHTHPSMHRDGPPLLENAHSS
Assay: KRAS G12C::SOS1 protein-protein interaction (PPI) inhibition assay (HTRF)
Format: binding
Conditions: not given
Description: Protein-protein interaction between SOS1 and KRAS^G12c was detected using KRAS G12C/SOS1 binding kit from CISBIO (64KRASG12PEH, CISBIO, FRANCE) according to the manufacturer's assay method. Briefly, the maximum concentration of an inhibitor sample was set to be 3 µM, and the inhibitor sample was diluted 7 times by 1/3, and samples having a total of 8 concentrations were prepared. In HTRF (Homogeneous Time-Resolved Fluorescence) exclusive 96-well low-volume white plate (66PL96005, CISBIO, FRANCE), 2 µL of an inhibitor sample prepared for each concentration, 5 µL of a mixed solution of Tag1 labeled KRAS^G12c protein and GTP diluted with the dilution solution provided by the manufacturer, and 5 µL of Tag2 labeled SOS1 protein were mixed, and added with 8 µL of a diluted solution where anti-Tag1 KRAS^G12C XL665 (HTRF acceptor) labeled antibody and anti-Tag2 SOS1 Terbium cryptate (HTRF donor) labeled antibody were mixed in an equal ratio and cultured at room temperature for 2 h.

| Structure (SMILES) | IC50 |
| --- | --- |
| COCC1(c2cccc([C@@H](C)NC(=O)c3ccc(=O)n(-c4cncc(-c5cnnn5C)c4)n3)c2F)CC1 [Example 18, N-[(1R)-1-[2-fluoro-3-[1-(methoxymethyl)cyclopropyl]phenyl]ethyl]-1-[5-(3-methyltriazol-4-yl)-3-pyridyl]-6-oxo-pyridazine-3-carboxamide] | > 150 nM |

Same assay, conditions: 8 concentrations from 3 µM, three replicates; read-out: KRAS G12C::SOS1 PPI

| IC50 | Structure (SMILES) |
| --- | --- |
| > 150 nM | Cc1ncc(-n2nc(C(=O)N[C@H](C)c3cccc(C(F)(F)CO)c3C)ccc2=O)cc1-c1cnnn1C [Example 1-28, N-[(1R)-1-[3-(1,1-difluoro-2-hydroxy-ethyl)-2-methyl-phenyl]ethyl]-1-[6-methyl-5-(3-methyltriazol-4-yl)-3-pyridyl]-6-oxo-pyridazine-3-carboxamide] |
| 50 to 150 nM | C[C@@H](NC(=O)c1ccc(=O)n(-c2cncc(-c3cnnn3C)c2)n1)c1cccc(C(F)(F)F)c1Cl [Example 1-31, N-[(1R)-1-[2-chloro-3-(trifluoromethyl)phenyl]ethyl]-1-[5-(3-methyltriazol-4-yl)-3-pyridyl]-6-oxo-pyridazine-3-carboxamide] |
| > 150 nM | C[C@@H](NC(=O)c1cc(N[C@H](C)c2cccc(C(F)(F)F)c2F)c(=O)n(-c2cncc(-c3cnnn3C)c2)n1)c1cccc(C(F)(F)F)c1F [Example 1-44, N-{(R)-1-[2-fluoro-3-(trifluoromethyl)phenyl]ethyl}-5-{(R)-1-[2-fluoro-3-(trifluoromethyl)phenyl]ethylamino}-1-[5-(1-methyl-1H-1,2,3-triazol-5-yl)-3-pyridyl]-6-oxo-1,6-dihydropyridazine-3-carboxamide] |
| 50 to 150 nM | CNc1ncc(-n2nc(C(=O)N[C@H](C)c3cccc(C(F)(F)F)c3F)ccc2=O)cc1-c1cnnn1C [Example 1-45, N-{(R)-1-[2-fluoro-3-(trifluoromethyl)phenyl]ethyl}-1-[6-(methylamino)-5-(1-methyl-1H-1,2,3-triazol-5-yl)-3-pyridyl]-6-oxo-1,6-dihydropyridazine-3-carboxamide] |
| > 150 nM | Cc1ncc(-n2nc(C(=O)N[C@H](C)c3cccc(C(F)F)c3F)ccc2=O)cc1-c1cnnn1C [Example 1-47, N-{(R)-1-[3-(difluoromethyl)-2-fluorophenyl]ethyl}-1-[6-methyl-5-(1-methyl-1H-1,2,3-triazol-5-yl)-3-pyridyl]-6-oxo-1,6-dihydropyridazine-3-carboxamide] |
| 50 to 150 nM | COc1ncc(-n2nc(C(=O)N[C@H](C)c3cccc(C(F)(F)F)c3F)ccc2=O)cc1-c1cnnn1C [Example 6-5, N-{(R)-1-[2-fluoro-3-(trifluoromethyl)phenyl]ethyl}-1-[6-methoxy-5-(1-methyl-1H-1,2,3-triazol-5-yl)-3-pyridyl]-6-oxo-1,6-dihydropyridazine-3-carboxamide] |
| 50 to 150 nM | C[C@@H](NC(=O)c1ccc(=O)n(-c2cnc(N(C)C)c(-c3cnnn3C)c2)n1)c1cccc(C(F)(F)F)c1F [Example 6-6, N-{(R)-1-[2-fluoro-3-(trifluoromethyl)phenyl]ethyl}-1-[6-(dimethylamino)-5-(1-methyl-1H-1,2,3-triazol-5-yl)-3-pyridyl]-6-oxo-1,6-dihydropyridazine-3-carboxamide] |

More lines, now with the values behind:

| Structure (SMILES) | IC50 |
| --- | --- |
| C[C@@H](O)c1cc(C(=O)N[C@H](C)c2cccc(C(F)(F)F)c2F)nn(-c2cncc(-c3cnnn3C)c2)c1=O (single isomer, unassigned) [Example 9] | 50 to 150 nM |
| C[C@H](O)c1cc(C(=O)N[C@H](C)c2cccc(C(F)(F)F)c2F)nn(-c2cncc(-c3cnnn3C)c2)c1=O (single isomer, unassigned) [Example 10] | 50 to 150 nM |
| C[C@@H](NC(=O)c1ccc(=O)n(-c2cncc(-c3cnnn3C)c2)n1)c1cccc(C2(CF)CC2)c1F (single isomer, unassigned) [Example 16] | > 150 nM |
| C[C@@H](NC(=O)c1ccc(=O)n(-c2cncc(-c3cnnn3C)c2)n1)c1cccc(C2=CCC2)c1F (single isomer, unassigned) [Example 17] | > 150 nM |

Same assay, conditions: read-out: KRAS G12C::SOS1 PPI; 8 concentrations from 3 µM, three replicates

| Structure (SMILES) | IC50 |
| --- | --- |
| C[C@@H](NC(=O)c1ccc(=O)n(-c2cncc(-c3cnnn3C)c2)n1)c1cccc(C2(CO)CC2)c1F [Example 1-32, N-[(1R)-1-[2-fluoro-3-[1-(hydroxymethyl)cyclopropyl]phenyl]ethyl]-1-[5-(3-methyltriazol-4-yl)-3-pyridyl]-6-oxo-pyridazine-3-carboxamide] | > 150 nM |

Molecular target: T2, SOS1 (Homo sapiens, UniProt Q07889)
T2 construct: HIS-SOS1cat (160 nM; Cytoskeleton, US); His (N); purchased Cytoskeleton
T2 sequence (Q07889 564-1049 limits assumed): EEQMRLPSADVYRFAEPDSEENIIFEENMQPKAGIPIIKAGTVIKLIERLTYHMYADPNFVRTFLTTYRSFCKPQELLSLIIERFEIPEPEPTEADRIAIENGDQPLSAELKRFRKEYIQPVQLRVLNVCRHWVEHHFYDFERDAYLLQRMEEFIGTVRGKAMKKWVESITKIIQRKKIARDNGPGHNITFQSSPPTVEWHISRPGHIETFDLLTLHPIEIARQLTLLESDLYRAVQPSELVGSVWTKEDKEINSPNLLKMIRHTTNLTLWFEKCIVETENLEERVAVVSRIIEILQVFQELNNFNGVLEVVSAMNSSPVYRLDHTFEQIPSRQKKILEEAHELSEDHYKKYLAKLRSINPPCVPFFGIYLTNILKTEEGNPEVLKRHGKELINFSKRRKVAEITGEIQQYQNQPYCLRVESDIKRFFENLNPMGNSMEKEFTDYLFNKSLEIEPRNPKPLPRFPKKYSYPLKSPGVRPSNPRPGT
Assay: SOS-catalyzed nucleotide exchange assay (HTRF, SOS1-mediated GTP loading of KRAS G12D)
Format: biochemical
Conditions: GST-KRAS G12D, HIS-SOS1cat, compound 128 pM to 10 µM; read-out: SOS-catalyzed nucleotide exchange assay
Description: SOS1 activity was measured by SOS1-mediated GTP loading quantification of KRAS^G12D. GTP loaded KRAS^G12D was detected by HTRF (Homogeneous Time Resolved Fluorescence) using anti-GST terbium (Cisbio, France) as a donor and a fluorescence GTP analogue (EDA-GTP-DY-647P1, [DY-647P1 labeled 2'/3'-O-(2-aminoethyl-carbamoyl)guanosine-5'-triphosphate (Jena bioscience, Germany)]) as an acceptor.
KRAS^G12D working solution was prepared by adding equal amounts of GST-KRAS^G12D (100 nM) and anti-GST-terbium (2 nM; Cisbio, France) to the assay buffer and culturing on ice for 10 minutes. […] Control solution was prepared by adding equal volumes of EDA-GTP-DY-647P1 and the assay buffer for normalization control to exclude GEF-independent GTP loading and background signals.
10 uL of the KRAS^G12D solution was added to each well and incubated for 30 minutes at room temperature while shaking. HTRF was measured using a Thermo Varioskan (excitation 334 nm, emission 665 nm). The IC50 of each inhibitor was analyzed using Graphad Prism.

| IC50 | Structure (SMILES) |
| --- | --- |
| < 50 nM | C[C@@H](NC(=O)c1ccc(=O)n(-c2cncc(-c3cnnn3C3COC3)c2)n1)c1cccc(C(F)(F)CO)c1F [Example 1-70, (R)-N-(1-(3-(1,1-difluoro-2-hydroxyethyl)-2-fluorophenyl)ethyl)-1-(5-(1-(oxetan-3-yl)-1H-1,2,3-triazol-5-yl)pyridin-3-yl)-6-oxo-1,6-dihydropyridazine-3-carboxamide] |
| < 50 nM | [2H]C([2H])(O)C(F)(F)c1cccc([C@@H](C)NC(=O)c2ccc(=O)n(-c3cncc(-c4cnnn4C4COC4)c3)n2)c1F [Example 1-71, (R)-N-(1-(3-(1,1-difluoro-2-hydroxyethyl-2,2-dideuterio)-2-fluorophenyl)ethyl)-1-(5-(1-(oxetan-3-yl)-1H-1,2,3-triazol-5-yl)pyridin-3-yl)-6-oxo-1,6-dihydropyridazine-3-carboxamide] |
| < 50 nM | C[C@@H](NC(=O)c1cc(C(F)(F)F)c(=O)n(-c2cncc(-c3cnnn3C)c2)n1)c1cccc(C(F)(F)CO)c1F [Example 1-72, (R)-N-(1-(3-(1,1-difluoro-2-hydroxyethyl)-2-fluorophenyl)ethyl)-1-(5-(1-methyl-1H-1,2,3-triazol-5-yl)pyridin-3-yl)-6-oxo-5-(trifluoromethyl)-1,6-dihydropyridazine-3-carboxamide] |

More lines, now with the values behind:

| Structure (SMILES) | IC50 |
| --- | --- |
| C[C@@H](O)c1cc(C(=O)N[C@H](C)c2cccc(C(F)(F)F)c2F)nn(-c2cncc(-c3cnnn3C)c2)c1=O (single isomer, unassigned) [Example 9] | < 50 nM |
| C[C@H](O)c1cc(C(=O)N[C@H](C)c2cccc(C(F)(F)F)c2F)nn(-c2cncc(-c3cnnn3C)c2)c1=O (single isomer, unassigned) [Example 10] | 50 to 150 nM |
